Measurements taken from publication PMC8085414, “L-Carnitine Production Through Biosensor-Guided Construction of the Neurospora crassa Biosynthesis Pathway in Escherichia coli” (Frontiers in Bioengineering and Biotechnology, 2021).

Molecular target: T1, TMABADH.1S (Neurospora crassa, UniProt Q7RYT1)
T1 construct: gene NCU00378; 495 AA short annotation of NCU00378; codon-harmonized synthetic gene in pECXT99A, E. coli DH5alpha crude extract
T1 sequence (Q7RYT1 52-546): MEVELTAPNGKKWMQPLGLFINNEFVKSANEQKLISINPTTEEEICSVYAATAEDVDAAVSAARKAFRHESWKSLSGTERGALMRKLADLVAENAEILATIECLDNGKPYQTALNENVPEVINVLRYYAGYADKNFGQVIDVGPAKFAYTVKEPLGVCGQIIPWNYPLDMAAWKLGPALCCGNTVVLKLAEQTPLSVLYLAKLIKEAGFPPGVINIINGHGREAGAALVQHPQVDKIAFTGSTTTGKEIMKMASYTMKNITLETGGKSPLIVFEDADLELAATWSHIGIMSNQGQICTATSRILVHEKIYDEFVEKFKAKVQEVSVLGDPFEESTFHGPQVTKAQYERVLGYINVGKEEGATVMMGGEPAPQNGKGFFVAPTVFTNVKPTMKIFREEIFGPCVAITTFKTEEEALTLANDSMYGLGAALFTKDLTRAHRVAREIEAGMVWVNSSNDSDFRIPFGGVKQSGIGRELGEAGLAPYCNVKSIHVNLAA
Test: NADH formation at […] nm, E. coli crude extract
Assay type: biochemical
Conditions: 2 mM NAD+, 0.4 mM TMABA iodide, glycine-NaOH pH 9.5, 30 °C

SMILES: NC(=O)c1ccc[n+]([C@@H]2O[C@H](COP(=O)(O)OP(=O)(O)OC[C@H]3O[C@@H](n4cnc5c(N)ncnc54)[C@H](O)[C@@H]3O)[C@@H](O)[C@H]2O)c1 [NAD^+]
- NADH formation at 340 nm, E. coli crude extract: co-conversion of NAD^+ to NADH in the TMABADH reaction
